Assay results taken from US11795189B2, “Formulation and method for spray-drying D-tagatose” (University of Kentucky Research Foundation, priority 2020, dated 2023).

Key:
[1] = D-tagatose fully dissolved in water:organic dual solvent systems; assay type: physicochemical
Text: The solvent used in the spray-drying feed formulation may be substantially any solvent suitable for the intended purpose including, for example, an appropriate co-solvent system. That co-solvent system may include acetone and water. The acetone and water may be provided at a ratio of between 1:1 and 4.6:1 (v/v %). In other embodiments, the co-solvent system may include methanol and water, propanol and water or ethanol and water.

[2] = D-tagatose dissolved in tri-solvent systems; assay type: physicochemical
Text: Tri-solvent systems may also be used. One example of a tri-solvent system is ethanol, methanol and water.
Table 2: Summarizes tri-solvent systems that have shown to dissolve D-tagatose.

[3] = Glass transition temperature (Tg) by DSC; assay type: physicochemical
Procedure: Glass transition temperatures were determined using DSC for physical mixtures of D-tagatose and respective excipients subjected to melt quenching. Samples were prepared by geometrically mixing D-tagatose and excipients at a 1:1 (w/w) ratio. Once mixed, the samples were then rigorously ground using a mortar and pestle before being hermetically sealed within a T-Zero pan. Once sealed, the samples were transferred to a Q2000 DSC (TA Instruments, New Castle, DE). All samples were run with the DSC operating in the modulation mode with a “pinhole” lid to better capture the sample's behavior instead of any residual vapors. The modulating method was first equilibrated at −20° C. before heating at 10° C./min to 140° C. […] Once −10° C. was reached, samples were set to modulate at ±0.5° C. every 60 s immediately and held for 5 min before ramping 1° C./min back to 140° C. Reported Tg values were averages of triplicate samples, each determined from the midpoint of the glass transition step change from the resultant reversible heat flow curves vs. temperature thermograms. All DSC mass samples were between 1 and 5 mg.

[4] = crystalline D-tagatose, at 20° C.; cited from earlier work
[5] = oral ingestion; cited from earlier work
[6] = tested on: type 2 diabetes; conditions: cited from earlier work
[7] = granted 2004; such low toxicity that no daily intake monitoring is needed; cited from earlier work

O=C(CO)[C@@H](O)[C@@H](O)[C@H](O)CO [D-tagatose, D-(−)-tagatose]
amount of D-tagatose dissolved ([1]; 2-Propanol:Water 5 mL:3.6 mL): ~1 gram | w % Tagatose (fully dissolved) ([1]; 2-Propanol:water, 45.6 w % water, 43.3 w % organic): 11.1 w % | amount of D-tagatose dissolved ([1]; Acetone:Water 5 mL:4.1 mL): ~1 gram | w % Tagatose (fully dissolved) ([1]; Acetone:water, 46.0 w % water, 42.7 w % organic): 11.3 w % | amount of D-tagatose dissolved ([1]; Ethanol:Water 5 mL:4.2 mL): ~1 gram | w % Tagatose (fully dissolved) ([1]; Ethanol:water, 45.9 w % water, 42.5 w % organic): 11.6 w % | amount of D-tagatose dissolved ([1]; Methanol:Water 5 mL:3.1 mL): ~1 gram | w % Tagatose (fully dissolved) ([1]; Methanol:water, 46.0 w % water, 42.7 w % organic): 11.2 w % | amount of D-tagatose dissolved ([2]; 2-Propanol:Acetone:Water 1 mL:5 mL:3.8 mL, sonicate while adding water): ~1 gram | amount of D-tagatose dissolved ([2]; 2-Propanol:Acetone:Water 5 mL:1 mL:3.6 mL, sonicate while adding water): ~1 gram | amount of D-tagatose dissolved ([2]; 2-Propanol:Ethanol:Water 1 mL:5 mL:4.2 mL, sonicate while adding water): ~1 gram | amount of D-tagatose dissolved ([2]; 2-Propanol:Ethanol:Water 5 mL:1 mL:4.6 mL, sonicate while adding water): ~1 gram | w % Tagatose (dissolved) ([2]; Ethanol 1 mL + 5 mL methanol + water, 37.324 w % water, 51.789 w % organic): 10.887 w % | w % Tagatose (dissolved) ([2]; Ethanol 2 mL + 5 mL methanol + water, 36.185 w % water, 53.816 w % organic): 9.999 w % | w % Tagatose (dissolved) ([2]; Ethanol 3 mL + 5 mL methanol + water, 32.436 w % water, 58.272 w % organic): 9.292 w % | w % Tagatose (dissolved) ([2]; Methanol 1 mL + 5 mL ethanol + water, 39.808 w % water, 49.3620231 w % organic): 10.830 w % | w % Tagatose (dissolved) ([2]; Methanol 2 mL + 5 mL ethanol + water, 37.459 w % water, 52.8123019 w % organic): 9.729 w % | w % Tagatose (dissolved) ([2]; Methanol 3 mL + 5 mL ethanol + water, 35.506 w % water, 55.7893055 w % organic): 8.704 w % | amount of D-tagatose dissolved ([2]; Methanol:Ethanol:Water 5 mL:1 mL:3.4 mL): ~1 gram | dry Tg (glass transition temperature) [3]: 18.92 °C | aqueous solubility [4]: 160 g/100 mL | fraction of orally ingested dose fully metabolized [5]: 20% | effect on HbA1c [6]: lower | effect on LDL [6]: lower | effect on fasting blood glucose levels [6]: lower | effect on total cholesterol [6]: lower | safe daily intake [7]: not specified
